Patent US10000484B2, “Inhibitors of the renal outer medullary potassim channel” (MERCK SHARP & DOHME CORP., priority 2013, dated 2018)

Each molecule was assayed against T1, ROMK (Kir1.1) (Homo sapiens, UniProt P48048) (assay: 86Rb+ Efflux Assay, described in WO2013/062892 at pages 79-80). Conditions: values marked "(Rb)" in Table 10.
T1 sequence (P48048 1-391): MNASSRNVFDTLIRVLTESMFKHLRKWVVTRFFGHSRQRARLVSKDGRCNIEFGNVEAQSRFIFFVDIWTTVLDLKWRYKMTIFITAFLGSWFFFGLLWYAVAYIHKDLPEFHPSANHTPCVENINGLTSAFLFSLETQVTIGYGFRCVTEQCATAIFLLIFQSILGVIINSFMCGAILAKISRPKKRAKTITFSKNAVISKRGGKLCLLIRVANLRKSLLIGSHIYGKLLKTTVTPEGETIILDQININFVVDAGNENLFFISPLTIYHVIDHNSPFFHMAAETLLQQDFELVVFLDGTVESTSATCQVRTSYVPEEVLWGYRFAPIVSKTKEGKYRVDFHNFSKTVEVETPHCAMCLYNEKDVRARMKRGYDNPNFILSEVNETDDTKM
Assay type: cell-based
Description: The data for Examples 2, 3, 4, 8, 9, 10, 15 and 32 were obtained using the ^86Rb^+ Efflux Assay, described in WO2013/062892 at pages 79-80.

IC50 [nM] | Structure (SMILES)
306 | N#Cc1ccc(-c2ncc3c(n2)CCN(CCc2ccc4c(c2)COC4=O)C3)cc1 [Example 2, 4-{6-[2-(1-oxo-1,3-dihydro-2-benzofuran-5-yl)ethyl]-5,6,7,8-tetrahydropyrido[4,3-d]pyrimidin-2-yl}benzonitrile]
501 | N#Cc1ccc(-n2ncc3c2CCN(CCc2ccc4c(c2)COC4=O)C3)cc1 [Example 3, 4-{5-[2-(1-oxo-1,3-dihydro-2-benzofuran-5-yl)ethyl]-4,5,6,7-tetrahydro-1H-pyrazolo[4,3-c]pyridin-1-yl}benzonitrile]
304 | Cc1c(CCN2CCc3nc(-c4ccc(C#N)cc4)ncc3C2)ccc2c1COC2=O [Example 4, 4-{6-[2-(4-methyl-1-oxo-1,3-dihydro-2-benzofuran-5-yl)ethyl]-5,6,7,8-tetrahydropyrido[4,3-d]pyrimidin-2-yl}benzonitrile]

These molecules were tested against T2, hROMK (hKir1.1) (Homo sapiens, UniProt P48048) (assay: Thallium Flux Assay (ROMK channel functional thallium flux assay, FLIPR-Tetra)). Conditions: HEK293 cells stably expressing hROMK; 30 min incubation with compound.
T2 construct: expressed in transfected cells
T2 sequence (P48048 1-391): T1 sequence (P48048 1-391)
Assay type: cell-based
Procedure: The following Thallium Flux Assay was performed on each of the final product compounds in the Examples. When the final product of an Example was an HCl salt, the salt was run in the Assay.
HEK293 cells stably expressing hROMK (hKir1.1) were grown at 37° C. in a 10% CO2 humidified incubator in complete growth media: Dulbecco's Modified Eagle Medium supplemented with non-essential amino acids, Penicillin/Streptomycin/Glutamine, G418 and FBS. At >80% confluency, aspirate the media from the flask and rinse with 10 mL Calcium/Magnesium-free PBS. Add 5 mL of 1× trypsin (prepared in Ca/Mg Free PBS) to T-225 flask and return flask to 37° C./CO2 incubator for 2-3 minutes. To dislodge the cell, gently bang the side of the flask with your hand. Triturate the cells completely and then transfer the cells to 25 mL complete media. Centrifuge at 1,500 rpm for 6 min followed by resuspension in complete growth media and determine cell concentration. For typical re-seeding, 4E6 cells/T-225 flask will attain >80% confluency in 4 days. Under ideal growth conditions and appropriate tissue culture practices, this cell line is stable for 40-45 passages.
FluxOR Kit Components (Invitrogen F10017)
• FluxOR™ Reagent (Component A) • FluxOR™ Assay Buffer (Component B)—10× Concentrate • PowerLoad™ Concentrate (Component C)—100× Concentrate • Probenecid (Component D)—Lyophilized sample is kept at −20° C. Water soluble, 100× after solubilization in 1 mL water. Store at 4° C. • FluxOR™ Chloride-free Buffer (Component E)—5× Concentrate • Potassium sulfate (K2SO4) Concentrate (Component F)—125 mM in water. Store at 4° C. • Thallium sulfate (Tl2SO4) Concentrate (Component G)—50 mM in water. Store at 4° C. • DMSO (dimethyl sulfoxide, Component H)—1 mL (100%) Reagent Preparation: FluxOR Working Solutions • 1000× FluxOR™ Reagent: Reconstitute a vial of component A in 100 μl DMSO; Mix well; Store 10 μl aliquots at −20° C. • 1× FluxOR™ Assay Buffer: Dilute Component B 10-fold with water; Adjust pH to 7.4 with Hepes/NaOH; Filter and store at 4° C. • Probenecid/Assay Buffer: 100 mL of 1× FluxOR™ Assay Buffer; 1 mL of reconstituted component D; Store at 4° C. • Loading Buffer (per microplate): 10 μl 1000× FluxOR™ Reagent; 100 μl component C; 10 mL Probenecid/Assay Buffer • Compound Buffer (per microplate): 20 mL Probenecid/Assay Buffer; 0.3 mM ouabain (10 mM ouabain in water can be stored in amber bottle/aluminum foil at room temperature); Test compound • 1× FluxOR™ Chloride-Free Buffer: Prepare 1× working solution in water. Can be stored at room temperature • Stimulant Buffer (prepared at 5× final concentration in 1× FluxOR™ Chloride-Free Buffer): 7.5 mM Thallium sulfate and 0.75 mM Potassium sulfate (to give a final assay concentration of 3 mM Thallium/0.3 mM Potassium). Store at 4° C. when not in use. Assay Protocol—
The ROMK channel functional thallium flux assay is performed in 384 wells, using the FLIPR-Tetra instrument. HEK-hKir1.1 cells are seeded in Poly-D-Lysine microplates and kept in a 37° C.-10% CO2 incubator overnight. On the day of the experiment, the growth media is replaced with the FluxOR™ reagent loading buffer and incubated, protected from light, at ambient temperature (23-25° C.) for 90 min. The loading buffer is replaced with assay buffer±test compound followed by 30 min incubation at ambient temperature, where the Thallium/Potassium stimulant is added to the microplate.
1. Seed HEK-hKir1.1 cells (50 μl at 20,000 cells/well) in 384-well PDL coated Microplates
2. Allow cells to adhere overnight in humidified 37° C./10% CO2 incubator
3. Completely remove cell growth media from microplate and replace with 25 μl loading buffer
4. Incubate Microplate at room temperature, protected form light, for 90 min
5. Remove loading buffer and replace with 25 μl 1× Assay Buffer±test compound.
6. Incubate microplate at room temperature, protected from light, for 30 min
7. At FLIPR-Tetra 384: Add stimulant (Thallium/Potassium) solution to microplate and monitor fluorescence. […]

IC50 [nM] | Structure (SMILES)
67 | Cc1c(C(O)CN2CCc3c(cnn3-c3ccc4c(c3)COC4=O)C2)ccc2c1COC2=O (stereo not drawn) [Example 33, 5-{1-hydroxy-2-[1-(1-oxo-1,3-dihydro-2-benzofuran-5-yl)-1,4,6,7-tetrahydro-5H-pyrazolo[4,3-c]pyridin-5-yl]ethyl}-4-methyl-2-benzofuran-1(3H)-one]
99.4 | Cc1c(C(O)CN2CCn3cc(-c4ccc5c(c4)COC5=O)nc3C2)ccc2c1COC2=O (stereo not drawn) [Example 34, 5-{1-hydroxy-2-[2-(1-oxo-1,3-dihydro-2-benzofuran-5-yl)-5,6-dihydroimidazo[1,2-a]pyrazin-7(8H)-yl]ethyl}-4-methyl-2-benzofuran-1(3H)-one]
154 | COc1cc(-c2cn3c(n2)CN(CC(O)c2ccc4c(c2C)COC4=O)CC3)ccc1C#N (stereo not drawn) [Example 35, 4-{7-[2-hydroxy-2-(4-methyl-1-oxo-1,3-dihydro-2-benzofuran-5-yl)ethyl]-5,6,7,8-tetrahydroimidazo[1,2-a]pyrazin-2-yl}-2-methoxybenzonitrile]
291 | Cc1c(C(O)CN2CCn3c(nn(-c4ccc5c(c4)COC5=O)c3=O)C2)ccc2c1COC2=O (stereo not drawn) [Example 37, 7-[2-hydroxy-2-(4-methyl-1-oxo-1,3-dihydro-2-benzofuran-5-yl)ethyl]-2-(1-oxo-1,3-dihydro-2-benzofuran-5-yl)-5,6,7,8-tetrahydro[1,2,4]triazolo[4,3-a]pyrazin-3(2H)-one]
82 | Cc1c(C(O)CN2CCc3nc(-c4ccc(C#N)c(F)c4)ncc3C2)ccc2c1COC2=O (stereo not drawn) [Example 38, 2-fluoro-4-{6-[2-hydroxy-2-(4-methyl-1-oxo-1,3-dihydro-2-benzofuran-5-yl)ethyl]-5,6,7,8-tetrahydropyrido[4,3-d]pyrimidin-2-yl}benzonitrile]
337 | Cc1cc(C#N)ccc1-c1ncc2c(n1)CCN(CC(O)c1ccc3c(c1C)COC3=O)C2 (stereo not drawn) [Example 39, 4-{6-[2-hydroxy-2-(4-methyl-1-oxo-1,3-dihydro-2-benzofuran-5-yl)ethyl]-5,6,7,8-tetrahydropyrido[4,3-d]pyrimidin-2-yl}-3-methylbenzonitrile]
155 | Cc1c(C(O)CN2CCc3nc(-c4ccc(C#N)cn4)ncc3C2)ccc2c1COC2=O (stereo not drawn) [Example 40, 6-{6-[2-hydroxy-2-(4-methyl-1-oxo-1,3-dihydro-2-benzofuran-5-yl)ethyl]-5,6,7,8-tetrahydropyrido[4,3-d]pyrimidin-2-yl}pyridine-3-carbonitrile]
463 | Cc1c(C(O)CN2CCc3nc(-c4ccc(C#N)cc4F)ncc3C2)ccc2c1COC2=O (stereo not drawn) [Example 41, 3-fluoro-4-{6-[2-hydroxy-2-(4-methyl-1-oxo-1,3-dihydro-2-benzofuran-5-yl)ethyl]-5,6,7,8-tetrahydropyrido[4,3-d]pyrimidin-2-yl}benzonitrile]
173 | Cc1c([C@@H](O)CN2CCc3c(-c4ccc(C#N)c(F)c4)n[nH]c3C2)ccc2c1COC2=O [Example 42, 3-(4-cyano-3-fluorophenyl)-6-((R)-2-hydroxy-2-(4-methyl-1-oxo-1,3-dihydroisobenzofuran-5-yl)ethyl)-4,5,6,7-tetrahydro-1H-pyrazolo[3,4-c]pyridine]
592 | Cc1c([C@@H](O)CN2CCc3c(cnn3-c3ccc(C#N)cn3)C2)ccc2c1COC2=O [Example 43, 6-{5-[(2R)-2-hydroxy-2-(4-methyl-1-oxo-1,3-dihydro-2-benzofuran-5-yl)ethyl]-4,5,6,7-tetrahydro-1H-pyrazolo[4,3-c]pyridin-1-yl}pyridine-3-carbonitrile]
301 | Cc1c([C@@H](O)CN2CCn3c(-c4ccc5c(c4)C[C@H](C)OC5=O)cnc3C2)ccc2c1COC2=O [Example 44, (3S)-6-{7-[(2R)-2-hydroxy-2-(4-methyl-1-oxo-1,3-dihydro-2-benzofuran-5-yl)ethyl]-5,6,7,8-tetrahydroimidazo[1,2-a]pyrazin-3-yl}-3-methyl-3,4-dihydro-1H-isochromen-1-one]
131 | Cc1cc(C#N)ccc1C1C[C@H]2CN(C[C@H](O)c3ccc4c(c3C)COC4=O)CCN2C1 (stereo partly drawn) [Example 45, 4-{(8aS)-2-[(2R)-2-hydroxy-2-(4-methyl-1-oxo-1,3-dihydro-2-benzofuran-5-yl)ethyl]octahydropyrrolo[1,2-a]pyrazin-7-yl}-3-methylbenzonitrile]
81.4 | Cc1c([C@@H](O)CN2CCN3CC(c4ccc5c(c4)C[C@@H](C)OC5=O)C[C@H]3C2)ccc2c1COC2=O (stereo partly drawn) [Example 46, (3R)-6-{(8aS)-2-[(2R)-2-hydroxy-2-(4-methyl-1-oxo-1,3-dihydro-2-benzofuran-5-yl)ethyl]octahydropyrrolo[1,2-a]pyrazin-7-yl}-3-methyl-3,4-dihydro-1H-isochromen-1-one]
249 | Cc1c([C@@H](O)CN2CCc3cc(-c4ccc5c(c4)C[C@H](C)OC5=O)ccc3C2)ccc2c1COC2=O [Example 47, 2-[(2R)-2-hydroxy-2-(4-methyl-1-oxo-1,3-dihydro-2-benzofuran-5-yl)ethyl]-6-[(3S)-3-methyl-1-oxo-3,4-dihydro-1H-isochromen-6-yl]-1,2,3,4-tetrahydroisoquinoline]

Structure (SMILES) | IC50 [nM]
Cc1c(C(O)CN2CCn3c(nn(-c4ccc(C#N)c(F)c4)c3=O)C2)ccc2c1COC2=O (stereo not drawn) [Example 36, 2-fluoro-4-{7-[2-hydroxy-2-(4-methyl-1-oxo-1,3-dihydro-2-benzofuran-5-yl)ethyl]-3-oxo-5,6,7,8-tetrahydro[1,2,4]triazolo[4,3-a]pyrazin-2(3H)-yl}benzonitrile] | 163
